For data set [1], the target named is JAK2 (Homo sapiens (Human), UniProt O60674). The data set can be described thus: Inhibition of JAK2, luminescence kinase assay (ADP-Glo). It is filed as biochemical. The note with it: purified recombinant JAK2. How it is done:
(§1) The study of the effect of compounds on the activity of purified recombinant JAK was performed by studying the inhibitory activity of the compounds on JAK from the enzymatic level. The experimental principle is to use a luminescence kinase assay to detect the ADP content produced by the reaction of JAK with the substrate Poly (4:1 Glu, Tyr) peptide: after ADP is converted to ATP, ATP can act as a substrate for the Ultra-Glo luciferase catalytic reaction, producing an optical signal. The luminescence signal is positively correlated with the amount of ADP and kinase activity. Therefore, the inhibitory effect of the compounds on the recombinant JAK was determined by observing the luminescence signal produced by the reaction of JAK and the substrate, and was expressed by IC50.
(§2) Experimental method: 10 different concentrations of compounds were incubated with JAK1, JAK2 and JAK3, respectively, for 60 minutes at 37° C. The substrate and ATP were then added, mixed, and reacted at 37° C. for 50 minutes. 25 μl of ADP-Glo™ was added and mixed for 2 minutes. The reaction was carried out for 50 minutes at room temperature. Further, 50 μl of the detection reagent was added and mixed for 2 minutes, and incubated at room temperature for 50 minutes, and detected by a chemiluminometer.

Data set [2] concerns Wistar rats. As to the kind of experiment: Effect of repeated administration on hematological parameters in rats. Type of data set: in vivo, rat. How it is done:
48 healthy Wistar rats were taken, half ♀ and half ♂. According to the body weight, they were randomly divided into the control group (Veh). The compound of Example 3 was administered by gavage at doses of 1.5 mg·kg^−1·d^−1 and 4.5 mg·kg^−1·d^−1. Ruxolitinib was administered by gavage at dose of 4.5 mg·kg^−1·d^−1. There were 12 rats in each group, half ♀ and half ♂. The drug was administered by gavage once a day for 4 weeks, and the hematological parameters were examined 1 day and 2 days after the last administration.

In data set [3] the target is JAK1 (Homo sapiens (Human), UniProt P23458). As to the kind of experiment: Inhibition of JAK1, luminescence kinase assay (ADP-Glo). It is filed as biochemical. The note with it: purified recombinant JAK1. On the procedure: as §1, §2
Sequence of JAK1 (P23458 whole entry): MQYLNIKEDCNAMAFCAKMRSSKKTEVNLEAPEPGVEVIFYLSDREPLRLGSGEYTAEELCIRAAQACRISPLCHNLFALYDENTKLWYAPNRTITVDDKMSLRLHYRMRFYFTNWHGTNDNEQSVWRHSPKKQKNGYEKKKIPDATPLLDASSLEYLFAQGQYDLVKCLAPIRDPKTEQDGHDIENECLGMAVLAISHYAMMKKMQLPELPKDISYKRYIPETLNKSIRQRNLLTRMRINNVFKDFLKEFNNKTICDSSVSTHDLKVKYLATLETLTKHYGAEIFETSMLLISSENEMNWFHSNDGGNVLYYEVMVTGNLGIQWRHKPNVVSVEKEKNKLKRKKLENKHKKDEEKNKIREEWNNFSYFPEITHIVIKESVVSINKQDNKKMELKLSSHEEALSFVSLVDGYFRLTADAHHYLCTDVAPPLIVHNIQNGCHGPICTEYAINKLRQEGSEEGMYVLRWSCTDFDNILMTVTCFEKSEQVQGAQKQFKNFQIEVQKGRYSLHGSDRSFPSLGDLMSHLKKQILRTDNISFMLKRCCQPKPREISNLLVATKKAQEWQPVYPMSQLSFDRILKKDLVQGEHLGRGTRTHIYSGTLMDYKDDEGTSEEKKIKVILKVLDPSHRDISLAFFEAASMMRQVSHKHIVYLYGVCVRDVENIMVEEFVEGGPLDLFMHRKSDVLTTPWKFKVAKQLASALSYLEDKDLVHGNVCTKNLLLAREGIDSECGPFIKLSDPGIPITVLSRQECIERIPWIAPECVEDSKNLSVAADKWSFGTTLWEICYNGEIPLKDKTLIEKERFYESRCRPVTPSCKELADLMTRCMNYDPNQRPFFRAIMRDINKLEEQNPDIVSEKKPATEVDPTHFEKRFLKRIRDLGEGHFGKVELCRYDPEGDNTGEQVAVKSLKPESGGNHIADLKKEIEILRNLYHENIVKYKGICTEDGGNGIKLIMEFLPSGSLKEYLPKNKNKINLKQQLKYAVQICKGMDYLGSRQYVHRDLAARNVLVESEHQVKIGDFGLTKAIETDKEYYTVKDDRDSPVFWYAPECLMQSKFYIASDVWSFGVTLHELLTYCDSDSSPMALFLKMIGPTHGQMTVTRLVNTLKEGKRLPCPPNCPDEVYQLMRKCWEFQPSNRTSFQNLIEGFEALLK
Data set [4] deals with JAK3 (Homo sapiens (Human), UniProt P52333). As to the kind of experiment: Inhibition of JAK3, luminescence kinase assay (ADP-Glo). Type of data set: biochemical. The conditions noted are these: purified recombinant JAK3. On the procedure:
as §1, §2

[5] abbreviates: gavage 4.5 mg·kg−1·d−1 once a day for 4 weeks.

The record followed here is US11414413B2, “Heterocyclic compound as JAK inhibitor, and salts and therapeutic use thereof” (Suzhou Longbiotech Pharmaceuticals Co., Ltd., priority 2016, dated 2022).

A value given as a limit tells only on which side of the number the result lay.

Sequence of JAK3 (P52333 whole entry): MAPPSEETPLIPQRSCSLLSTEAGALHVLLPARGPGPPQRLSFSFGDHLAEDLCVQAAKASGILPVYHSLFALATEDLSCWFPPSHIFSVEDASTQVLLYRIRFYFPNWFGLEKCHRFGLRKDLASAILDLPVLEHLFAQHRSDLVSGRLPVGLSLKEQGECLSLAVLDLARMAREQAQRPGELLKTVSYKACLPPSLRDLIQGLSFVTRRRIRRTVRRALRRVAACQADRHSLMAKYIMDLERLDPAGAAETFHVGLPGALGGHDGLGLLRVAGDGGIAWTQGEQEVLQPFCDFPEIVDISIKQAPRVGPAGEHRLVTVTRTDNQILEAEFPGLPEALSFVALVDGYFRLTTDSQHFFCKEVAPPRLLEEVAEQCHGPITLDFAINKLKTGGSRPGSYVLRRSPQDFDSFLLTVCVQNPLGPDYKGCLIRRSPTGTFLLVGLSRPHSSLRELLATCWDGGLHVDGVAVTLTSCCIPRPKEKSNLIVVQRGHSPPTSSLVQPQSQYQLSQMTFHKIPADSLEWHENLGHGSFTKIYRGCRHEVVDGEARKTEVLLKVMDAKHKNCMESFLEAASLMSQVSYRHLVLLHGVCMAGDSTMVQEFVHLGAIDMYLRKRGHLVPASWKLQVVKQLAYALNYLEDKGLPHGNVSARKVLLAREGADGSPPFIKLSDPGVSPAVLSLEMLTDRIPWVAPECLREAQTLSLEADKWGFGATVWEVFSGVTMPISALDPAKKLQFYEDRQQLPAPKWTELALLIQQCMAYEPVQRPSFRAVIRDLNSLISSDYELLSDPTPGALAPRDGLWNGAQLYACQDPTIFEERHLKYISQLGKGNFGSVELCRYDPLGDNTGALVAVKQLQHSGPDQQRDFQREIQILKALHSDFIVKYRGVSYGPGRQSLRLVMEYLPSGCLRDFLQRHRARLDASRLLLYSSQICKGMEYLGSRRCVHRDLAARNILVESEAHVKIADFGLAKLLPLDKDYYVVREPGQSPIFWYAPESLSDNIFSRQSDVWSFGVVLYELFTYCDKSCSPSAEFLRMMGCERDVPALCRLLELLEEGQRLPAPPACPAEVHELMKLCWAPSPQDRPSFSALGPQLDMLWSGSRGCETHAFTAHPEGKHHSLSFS
Sequence of JAK2 (O60674 whole entry): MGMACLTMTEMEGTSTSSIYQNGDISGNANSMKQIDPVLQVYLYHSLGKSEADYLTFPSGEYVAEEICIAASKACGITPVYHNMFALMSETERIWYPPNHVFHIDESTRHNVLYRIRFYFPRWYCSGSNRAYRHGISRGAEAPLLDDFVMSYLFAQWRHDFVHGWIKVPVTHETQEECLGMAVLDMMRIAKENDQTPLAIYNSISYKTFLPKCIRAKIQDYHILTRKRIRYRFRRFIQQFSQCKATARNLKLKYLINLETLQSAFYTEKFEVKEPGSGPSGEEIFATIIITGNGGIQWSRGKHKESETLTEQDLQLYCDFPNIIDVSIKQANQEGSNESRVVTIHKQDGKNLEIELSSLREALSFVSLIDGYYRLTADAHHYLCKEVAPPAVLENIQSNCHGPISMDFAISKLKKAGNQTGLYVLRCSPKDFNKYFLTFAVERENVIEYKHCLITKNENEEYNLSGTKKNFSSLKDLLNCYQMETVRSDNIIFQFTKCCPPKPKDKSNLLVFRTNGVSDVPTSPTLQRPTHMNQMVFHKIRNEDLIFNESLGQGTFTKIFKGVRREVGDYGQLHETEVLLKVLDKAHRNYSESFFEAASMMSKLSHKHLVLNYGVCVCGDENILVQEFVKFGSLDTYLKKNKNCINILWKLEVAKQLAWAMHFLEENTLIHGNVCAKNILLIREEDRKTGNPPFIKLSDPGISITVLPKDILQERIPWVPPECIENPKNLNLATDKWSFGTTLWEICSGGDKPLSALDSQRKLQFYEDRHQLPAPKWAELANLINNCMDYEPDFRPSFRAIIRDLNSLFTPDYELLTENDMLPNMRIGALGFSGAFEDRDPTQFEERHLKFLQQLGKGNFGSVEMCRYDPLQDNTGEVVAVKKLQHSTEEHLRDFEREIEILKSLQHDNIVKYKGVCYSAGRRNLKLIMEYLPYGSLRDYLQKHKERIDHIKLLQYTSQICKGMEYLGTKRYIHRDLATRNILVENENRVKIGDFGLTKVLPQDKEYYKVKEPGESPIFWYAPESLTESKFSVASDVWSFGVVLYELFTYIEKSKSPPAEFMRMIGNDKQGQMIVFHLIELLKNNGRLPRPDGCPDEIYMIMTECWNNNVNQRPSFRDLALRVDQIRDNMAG

Consider `N#CCC1(n2cc(-c3ncnc4[nH]ccc34)cn2)CCS(=O)(=O)CC1` [Example 3, 2-(4-(4-(7H-pyrrolo[2,3-d]pyrimidin-4-yl)-1H-pyrazol-1-yl)-1,1-dioxotetrahydro-2H-thiopyran-4-yl)acetonitrile], for which, in data set [1], the IC50 was 20 to 50 nM. The “hematological parameter WBC compared with the control group (Veh)” value in data set [2] (gavage 1.5 mg·kg−1·d−1 once a day for 4 weeks) and in data set [2] (setting [5]) was “no significant decrease” each time.

Take `N#CC1(Nc2ccnc(-c3ccnc4[nH]ccc34)n2)CCC1` [Example 56, 1-((2-(1H-pyrrolo[2,3-b]pyridin-4-yl)pyrimidin-4-yl)amino)cyclobutanecarbonitrile]: the IC50 in data set [1], in data set [3] and in data set [4] was more than 50 nM in each case.

As to `N#CC1(Nc2ccnc(-c3c[nH]c4ncccc34)n2)CCCC1` [Example 57, 1-((2-(1H-pyrrolo[2,3-b]pyridin-3-yl)pyrimidin-4-yl)amino)cyclopentanecarbonitrile], the IC50 in data set [1] is more than 50 nM; in data set [3], more than 50 nM; in data set [4] it was 20 to 50 nM.

As for `N#CC1(Nc2ccnc(-c3ncnc4[nH]ccc34)n2)CCCC1` [Example 58, 1-((2-(7H-pyrrolo[2,3-d]pyrimidin-4-yl)pyrimidin-4-yl)amino)cyclopentanecarbonitrile], the IC50 in data set [1], in data set [3] and in data set [4] was more than 50 nM throughout.

As to `N#CC1(Nc2ccnc(-c3ccnc4[nH]ccc34)n2)CCCC1` [Example 59, 1-((2-(1H-pyrrolo[2,3-b]pyridin-4-yl)pyrimidin-4-yl)amino)cyclopentanecarbonitrile], the figures for the IC50 in data set [1], in data set [3] and in data set [4] were more than 50 nM, more than 50 nM and 20 to 50 nM, respectively.

As to `CC[C@](C)(C#N)Nc1ccnc(-c2c[nH]c3ncccc23)n1` [Example 60], the IC50 in data set [1] was more than 50 nM; in data set [3], more than 50 nM; in data set [4], 20 to 50 nM.

In the case of `CC[C@](C)(C#N)Nc1ccnc(-c2ncnc3[nH]ccc23)n1` [Example 61], the IC50 in data set [1], in data set [3] and in data set [4] was more than 50 nM throughout.

For `CC[C@](C)(C#N)Nc1ccnc(-c2ccnc3[nH]ccc23)n1` [Example 62], the IC50 in data set [1], in data set [3] and in data set [4] was more than 50 nM throughout.

Consider `N#CC[C@H](C1CCCC1)n1cc(-c2ncnc3[nH]ccc23)cn1` [Ruxolitinib, reference compound], for which the “hematological parameter WBC compared with the control group (Veh)” value in data set [2] (setting [5]) is on record as “significant decrease”.
